Measurements reported in the NIST ThermoML archive (doi:10.1016/j.jct.2003.11.008).
± gives the expanded uncertainty stated by the source.

Experiments:
[1] = xn = mol fraction of the nth substance listed; conditions: 318.15 K, 101.3 kPa, Liquid
[2] = excess molar enthalpy (molar enthalpy of mixing); xn = mol fraction of the nth substance listed; conditions: 318.15 K, 101.3 kPa, Liquid

CCCCCCCCCCC [undecane] + CCOC(C)=O
Conditions	excess molar enthalpy [kcal/mol]	excess molar volume [m3/mol]
[1], x2 = 0.0632	–	3.65e-07 ± 3.4e-08
[1], x2 = 0.1076	–	5.64e-07 ± 3.6e-08
[1], x2 = 0.1921	–	8.99e-07 ± 3.9e-08
[1], x2 = 0.2759	–	1.151e-06 ± 4.2e-08
[1], x2 = 0.3521	–	1.328e-06 ± 4.3e-08
[1], x2 = 0.4213	–	1.429e-06 ± 4.4e-08
[1], x2 = 0.4771	–	1.49e-06 ± 4.5e-08
[1], x2 = 0.5319	–	1.504e-06 ± 4.5e-08
[1], x2 = 0.5859	–	1.504e-06 ± 4.5e-08
[1], x2 = 0.6355	–	1.461e-06 ± 4.5e-08
[1], x2 = 0.6817	–	1.385e-06 ± 4.4e-08
[1], x2 = 0.7223	–	1.311e-06 ± 4.3e-08
[1], x2 = 0.7656	–	1.17e-06 ± 4.2e-08
[1], x2 = 0.7889	–	1.147e-06 ± 4.2e-08
[1], x2 = 0.8628	–	8.46e-07 ± 3.9e-08
[1], x2 = 0.9234	–	5.39e-07 ± 3.6e-08
[1], x2 = 0.9664	–	2.63e-07 ± 3.3e-08
[2], x2 = 0.1003	0.149 ± 0.00263	–
[2], x2 = 0.1944	0.252 ± 0.0043	–
[2], x2 = 0.2921	0.343 ± 0.00574	–
[2], x2 = 0.3767	0.402 ± 0.00669	–
[2], x2 = 0.4501	0.433 ± 0.00717	–
[2], x2 = 0.509	0.443 ± 0.00717	–
[2], x2 = 0.5537	0.441 ± 0.00717	–
[2], x2 = 0.5965	0.436 ± 0.00717	–
[2], x2 = 0.6065	0.433 ± 0.00717	–
[2], x2 = 0.6498	0.413 ± 0.00669	–
[2], x2 = 0.6942	0.39 ± 0.00645	–
[2], x2 = 0.7366	0.364 ± 0.00598	–
[2], x2 = 0.7848	0.326 ± 0.0055	–
[2], x2 = 0.8361	0.272 ± 0.00454	–
[2], x2 = 0.8884	0.206 ± 0.00359	–
[2], x2 = 0.9357	0.141 ± 0.00263	–
[2], x2 = 0.9742	0.0596 ± 0.00136	–

CCCCCCCCC [nonane] + CCOC(C)=O
Conditions	excess molar enthalpy [kcal/mol]	excess molar volume [m3/mol]
[1], x2 = 0.0916	–	4.94e-07 ± 1.8e-08
[1], x2 = 0.1769	–	8.53e-07 ± 1.9e-08
[1], x2 = 0.2442	–	1.049e-06 ± 2e-08
[1], x2 = 0.3108	–	1.228e-06 ± 2.1e-08
[1], x2 = 0.3462	–	1.289e-06 ± 2.1e-08
[1], x2 = 0.4363	–	1.418e-06 ± 2.2e-08
[1], x2 = 0.4938	–	1.446e-06 ± 2.2e-08
[1], x2 = 0.5469	–	1.447e-06 ± 2.2e-08
[1], x2 = 0.5934	–	1.426e-06 ± 2.2e-08
[1], x2 = 0.6418	–	1.361e-06 ± 2.2e-08
[1], x2 = 0.6869	–	1.292e-06 ± 2.2e-08
[1], x2 = 0.7308	–	1.202e-06 ± 2.1e-08
[1], x2 = 0.7614	–	1.142e-06 ± 2.1e-08
[1], x2 = 0.8417	–	8.49e-07 ± 1.9e-08
[1], x2 = 0.9044	–	5.78e-07 ± 1.8e-08
[1], x2 = 0.9558	–	2.94e-07 ± 1.7e-08
[2], x2 = 0.0596	0.0869 ± 0.00174	–
[2], x2 = 0.131	0.172 ± 0.00311	–
[2], x2 = 0.2117	0.253 ± 0.0043	–
[2], x2 = 0.295	0.316 ± 0.00526	–
[2], x2 = 0.3664	0.362 ± 0.00598	–
[2], x2 = 0.436	0.394 ± 0.00645	–
[2], x2 = 0.4899	0.406 ± 0.00669	–
[2], x2 = 0.5447	0.408 ± 0.00669	–
[2], x2 = 0.5881	0.399 ± 0.00645	–
[2], x2 = 0.6166	0.391 ± 0.00645	–
[2], x2 = 0.629	0.383 ± 0.00621	–
[2], x2 = 0.6629	0.373 ± 0.00621	–
[2], x2 = 0.7061	0.347 ± 0.00574	–
[2], x2 = 0.752	0.32 ± 0.00526	–
[2], x2 = 0.7991	0.277 ± 0.00454	–
[2], x2 = 0.8421	0.235 ± 0.00406	–
[2], x2 = 0.8875	0.177 ± 0.00311	–
[2], x2 = 0.9312	0.118 ± 0.00222	–
[2], x2 = 0.9672	0.0591 ± 0.00131	–

CCCCCCCCCCCCC [tridecane] + COC(C)=O
Conditions	excess molar enthalpy [kcal/mol]	excess molar volume [m3/mol]
[1], x2 = 0.1152	–	6.95e-07 ± 1.9e-08
[1], x2 = 0.195	–	1.093e-06 ± 2.1e-08
[1], x2 = 0.2573	–	1.364e-06 ± 2.2e-08
[1], x2 = 0.3086	–	1.537e-06 ± 2.3e-08
[1], x2 = 0.357	–	1.665e-06 ± 2.3e-08
[1], x2 = 0.4302	–	1.838e-06 ± 2.4e-08
[1], x2 = 0.5045	–	1.919e-06 ± 2.4e-08
[1], x2 = 0.561	–	1.946e-06 ± 2.5e-08
[1], x2 = 0.6192	–	1.917e-06 ± 2.4e-08
[1], x2 = 0.666	–	1.849e-06 ± 2.4e-08
[1], x2 = 0.7125	–	1.753e-06 ± 2.4e-08
[1], x2 = 0.7495	–	1.651e-06 ± 2.3e-08
[1], x2 = 0.8399	–	1.288e-06 ± 2.1e-08
[1], x2 = 0.8997	–	9.51e-07 ± 2e-08
[1], x2 = 0.9425	–	6.18e-07 ± 1.8e-08
[1], x2 = 0.9745	–	2.97e-07 ± 1.7e-08
[2], x2 = 0.1268	0.197 ± 0.00335	–
[2], x2 = 0.2391	0.341 ± 0.00574	–
[2], x2 = 0.3316	0.448 ± 0.00741	–
[2], x2 = 0.4097	0.517 ± 0.00837	–
[2], x2 = 0.4693	0.553 ± 0.00884	–
[2], x2 = 0.5214	0.571 ± 0.00908	–
[2], x2 = 0.5635	0.578 ± 0.00932	–
[2], x2 = 0.5965	0.581 ± 0.00932	–
[2], x2 = 0.6319	0.574 ± 0.00932	–
[2], x2 = 0.6706	0.559 ± 0.00908	–
[2], x2 = 0.7114	0.534 ± 0.0086	–
[2], x2 = 0.7533	0.504 ± 0.00813	–
[2], x2 = 0.7939	0.461 ± 0.00741	–
[2], x2 = 0.8383	0.402 ± 0.00669	–
[2], x2 = 0.883	0.33 ± 0.0055	–
[2], x2 = 0.9274	0.242 ± 0.00406	–
[2], x2 = 0.9665	0.133 ± 0.00239	–

CCCCCCCCCCCCCCCCC [heptadecane] + CCCCCOC(C)=O
Conditions	excess molar enthalpy [kcal/mol]	excess molar volume [m3/mol]
[1], x2 = 0.1194	–	3.74e-07 ± 1.7e-08
[1], x2 = 0.1753	–	5.21e-07 ± 1.8e-08
[1], x2 = 0.2989	–	7.64e-07 ± 1.9e-08
[1], x2 = 0.3689	–	8.67e-07 ± 2e-08
[1], x2 = 0.421	–	9.1e-07 ± 2e-08
[1], x2 = 0.4657	–	9.43e-07 ± 2e-08
[1], x2 = 0.5081	–	9.6e-07 ± 2e-08
[1], x2 = 0.5464	–	9.64e-07 ± 2e-08
[1], x2 = 0.6072	–	9.39e-07 ± 2e-08
[1], x2 = 0.6743	–	8.96e-07 ± 2e-08
[1], x2 = 0.7316	–	8.42e-07 ± 1.9e-08
[1], x2 = 0.7894	–	7.23e-07 ± 1.9e-08
[1], x2 = 0.8384	–	6.22e-07 ± 1.8e-08
[1], x2 = 0.8842	–	4.84e-07 ± 1.8e-08
[1], x2 = 0.9288	–	3.29e-07 ± 1.7e-08
[1], x2 = 0.9702	–	1.42e-07 ± 1.6e-08
[2], x2 = 0.0881	0.101 ± 0.00194	–
[2], x2 = 0.1856	0.188 ± 0.00335	–
[2], x2 = 0.2815	0.259 ± 0.0043	–
[2], x2 = 0.3678	0.306 ± 0.00502	–
[2], x2 = 0.4492	0.331 ± 0.0055	–
[2], x2 = 0.5202	0.339 ± 0.00574	–
[2], x2 = 0.5818	0.337 ± 0.0055	–
[2], x2 = 0.6246	0.326 ± 0.0055	–
[2], x2 = 0.6651	0.308 ± 0.00502	–
[2], x2 = 0.7105	0.285 ± 0.00478	–
[2], x2 = 0.7575	0.258 ± 0.0043	–
[2], x2 = 0.807	0.223 ± 0.00382	–
[2], x2 = 0.8571	0.18 ± 0.00311	–
[2], x2 = 0.905	0.13 ± 0.00239	–
[2], x2 = 0.9532	0.0725 ± 0.00151	–

CCCOC(C)=O [propyl ethanoate] + CCCCCCCCC
Conditions	excess molar enthalpy, [2] [kcal/mol]	excess molar volume, [1] [m3/mol]
x1 = 0.0866	0.109 ± 0.00208	3.76e-07 ± 1.7e-08
x1 = 0.1486	–	5.74e-07 ± 1.8e-08
x1 = 0.1795	0.191 ± 0.00335	–
x1 = 0.2182	–	7.77e-07 ± 1.9e-08
x1 = 0.2657	0.255 ± 0.0043	–
x1 = 0.2774	–	8.96e-07 ± 2e-08
x1 = 0.344	0.294 ± 0.00502	–
x1 = 0.3451	–	9.99e-07 ± 2e-08
x1 = 0.4053	–	1.075e-06 ± 2e-08
x1 = 0.4115	0.318 ± 0.00526	–
x1 = 0.4561	–	1.101e-06 ± 2.1e-08
x1 = 0.4797	0.33 ± 0.0055	–
x1 = 0.5089	–	1.111e-06 ± 2.1e-08
x1 = 0.5358	0.328 ± 0.0055	–
x1 = 0.5631	–	1.094e-06 ± 2.1e-08
x1 = 0.5815	0.321 ± 0.00526	–
x1 = 0.6115	–	1.058e-06 ± 2e-08
x1 = 0.6251	0.307 ± 0.00502	–
x1 = 0.6577	–	1.012e-06 ± 2e-08
x1 = 0.6703	0.287 ± 0.00478	–
x1 = 0.7051	–	9.38e-07 ± 2e-08
x1 = 0.7182	0.262 ± 0.00454	–
x1 = 0.7328	–	8.95e-07 ± 2e-08
x1 = 0.7662	0.233 ± 0.00406	–
x1 = 0.8182	0.197 ± 0.00335	–
x1 = 0.8254	–	6.64e-07 ± 1.9e-08
x1 = 0.8684	0.155 ± 0.00287	–
x1 = 0.8966	–	4.35e-07 ± 1.8e-08
x1 = 0.9158	0.105 ± 0.00201	–
x1 = 0.9496	–	2.29e-07 ± 1.7e-08
x1 = 0.9598	0.0553 ± 0.00124	–
